Assay [1] concerns breast cancer cell line MX-1. Nature of the assay: MX-1 cell line proliferation assay (3-day, Cell Titer Glo). The format is cell-based, human. The note with it: 72 hours, read-out: Cellular proliferation: EC50. The protocol: The impact of compounds of the Examples on cancer cell proliferation was determined using the breast cancer cell line MX-1 (ATCC) in a 3-day proliferation assay. MX-1 cells were maintained in RPMI supplemented with 10% FBS at 37 C.° and an atmosphere of 5% CO2. For compound testing, MX-1 cells were plated in 96-well black bottom plates at a density of 5000 cells/well in 90 μl of culture media and incubated at 37° overnight to allow cell adhesion and spreading. Compound dilution series were prepared in DMSO via a 3-fold serial dilution from 3 mM to 0.1 μM. The DMSO dilution series were then diluted 1:100 in phosphate buffered saline, and 10 μL of the resulted solution were added to the appropriate wells of the MX-1 cell plate. The final compound concentrations in the wells were 3, 1, 0.3, 0.1, 0.03, 0.01, 0.003, 0.001, 0.0003 and 0.0001 μM.
Luminescence readings from the Cell Titer Glo assay were normalized to the DMSO treated cells and analyzed using the GraphPad Prism software with sigmoidal curve fitting to obtain EC50s. The minimum significant ratio (MSR) was determined to evaluate assay reproducibility (Eastwood et al., (2006) J Biomol Screen, 11: 253-261).
(In general: ATP-based viability assays read luminescence as a measure of living cells.)

The subject of assay [2] is LPS induced IL-6 production. Nature of the assay: LPS (lipopolysaccharide) induced IL-6 production mouse assay. The class given is in vivo. Particulars: mice, 3 mg/kg (PO), one hour before LPS, serum 2 hours after LPS. The protocol: Compounds of the Examples listed in Table 8 were assayed for their ability to inhibit LPS (lipopolysaccharide) induced IL-6 production in mice. Severe combined immunodeficient female mice (8 per group) received an intraperitoneal challenge of lipopolysaccharide (2.5 mg/kg, L2630 E. coli 0111:B4) one hour after oral administration (PO) or intraperitoneal administration (IP) of compounds in a solution of 2% ethanol, 5% Tween-80, 20% PEG-400 and 73% (0.2% hydroxypropylmethylcellulose in water). Mice were euthanized 2 hours after lipopolysaccharide injection, blood was removed by cardiac puncture, and then the serum harvested from the blood samples was frozen at −80° C. On the day of the assay the serum samples were brought to room temperature and then diluted 1:20 in phosphate-buffered saline containing 2% bovine serum albumin. Interleukin-6 measurements were performed using a cytokine assay from Meso Scale Discovery (Gaithersburg, Md.) for mouse serum analysis according to the manufacturer's protocol and read on a SECTOR Imager 6000 (Meso Scale Discovery, Gaithersburg, Md.) instrument. Statistical analysis was performed using Prism software (version 5.0) incorporating Dunnett's one way ANOVA. The IL-6 mean and standard deviation of the group of vehicle treated animals were compared with the IL-6 mean and standard deviation of the group treated with drug. A p value <0.05 means that there is less than a 5% probability that the mean values in the two groups are equal.

Another assay addresses BRD4 (BDI_K57-E168) (Homo sapiens (Human), UniProt O60885). Nature of the assay: TR-FRET bromodomain binding assay, BRD4 first bromodomain. The note with it: His-tagged BD1, 100 nM Alexa647 probe. An outline of the steps:
(§1)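 His-tagged BRD4 BD1 or BD2 (8 nM) with Eu-anti-His antibody (1 nM) and Alexa647-labelled BET-inhibitor probe (100 nM BDI, 30 nM BDII); 50 μM−0.85 nM compound, 2% DMSO, phosphate buffer pH 6.0, 1 h at room temperature. TR-FRET IC50 by 4-parameter fit, converted to Ki using probe Kd.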
(In general: In TR-FRET formats the signal depends on donor and acceptor labels being close together.)

The target of a further assay is BRD4 (BDII_E352-M457) (Homo sapiens (Human), UniProt O60885). Description: TR-FRET bromodomain binding assay, BRD4 second bromodomain. The note with it: His-tagged BD2, 30 nM Alexa647 probe. An outline of the steps: as §1

Where two headings read alike, the source gives them in different places. Some results are limits rather than exact numbers.

Regarding `CCS(=O)(=O)Nc1ccc(Oc2ccc(F)cc2F)c(-c2[nH]c(C)c3c2CCCC3=O)c1` [Example 47, N-[4-(2,4-difluorophenoxy)-3-(3-methyl-4-oxo-4,5,6,7-tetrahydro-2H-isoindol-1-yl)phenyl]ethanesulfonamide], the EC50 in assay [1] (Homo sapiens, MX1, MX-1 cells) was 193 nM. Further, the “% inhibition of LPS induced IL-6 production” value in assay [2] is reported as 33.0 at 3 mg/kg (PO) %. Besides, the Ki on BRD4 (BDI_K57-E168) was 11 nM; on BRD4 (BDII_E352-M457) it was 19 nM.

On to `Cc1[nH]c(-c2ccccc2OCc2ccccn2)c2c1C(=O)CCC2` [Example 34, 3-methyl-1-[2-(pyridin-2-ylmethoxy)phenyl]-2,5,6,7-tetrahydro-4H-isoindol-4-one], for which the EC50 in assay [1] (Homo sapiens, MX1, MX-1 cells) was more than 3000 nM. In addition, the Ki on BRD4 (BDI_K57-E168) is 1350 nM; on BRD4 (BDII_E352-M457) it was 2620 nM.

Take `Cc1[nH]c(-c2cc(NS(=O)(=O)CC(F)(F)F)ccc2Oc2ccc(F)cc2F)c2c1C(=O)CCC2` [Example 48, N-[4-(2,4-difluorophenoxy)-3-(3-methyl-4-oxo-4,5,6,7-tetrahydro-2H-isoindol-1-yl)phenyl]-2,2,2-trifluoromethanesulfonamide]: the EC50 in assay [1] (MX-1 cells) came out at 564 nM. For the same compound, the Ki at BRD4 (BDI_K57-E168) was 68 nM; at BRD4 (BDII_E352-M457), 43 nM.

On to `Cc1[nH]c(-c2cc(N)ccc2Oc2ccc(F)cc2F)c2c1C(=O)CCC2` [Example 45, 1-[5-amino-2-(2,4-difluorophenoxy)phenyl]-3-methyl-2,5,6,7-tetrahydro-4H-isoindol-4-one], for which the EC50 in assay [1] (Homo sapiens, MX1, MX-1 cells) came to 329 nM. The Ki was 40 nM at BRD4 (BDI_K57-E168) and 198 nM at BRD4 (BDII_E352-M457).

In general, Ki refers to the dissociation constant of the complex between target and ligand, obtained from inhibition or displacement. A high value points to a looser hold on the target.
